Laboratory results as given in patent publication US20050222251A1, “Dual inhibition of cyclooxygenase-2 and carbonic anhydrase” (AMOREPACIFIC CORPORATION, priority 2004, published 2005).
pIC50: −log10 of the molar value. Where two headings read alike, the source gives them in different places.

Experiments:
Human CA II [1] = biological target: T1, Human CA II (Homo sapiens, UniProt P00918); test: Inhibition assay for CA (Method A), CA II; type: biochemical; details: CO2 hydration, phenol red
T1 construct: purchased Sigma C-4936
Protocol: (§1) Compounds of Formula I were assessed for their inhibitory activities against human CAs according to methods described in a literature and a prior art. […] Details of the employed assay methods (Method A and Method B) for the inhibition of CAs are provided in the section of “MATERIALS AND METHODS” of this invention. Provided below are some of compounds of Formula I assayed for the inhibition of CAs. [drawing 6] [drawing 7] [drawing 8]
(§2) DMSO and buffer agents were obtained from Sigma. Distilled water was prepared in-house by distilling deionized water.
(§3) Inhibition Assay for CA (Method A): CA inhibitory activities by COX-2 inhibitors of this invention were assessed by a previously reported method. […] Then the interval was measured from the initiation of the reaction to the point of the color change of the solution from purple to yellow. During the entire reaction, the reaction solution was kept bubbled with CO2.

Human CA I [2] = biological target: T2, Human CA I (Homo sapiens, UniProt P00915); test: Inhibition assay for CA (Method A), CA I; type: biochemical; details: CO2 hydration, phenol red
T2 construct: purchased Sigma C-6165
Protocol: as §1, §2, §3

[3] = human whole blood, FDA pharmacology review; cited from earlier work
[4] = FDA pharmacology review; valdecoxib in human whole blood; cited from earlier work
[5] = cited from earlier work; for primary target sites of the GI adverse events: repeated oral administrations
[6] = cited from earlier work
Human CA II [7] = biological target: T1, Human CA II; test: Inhibition assay for CA (Method B, esterase activity), CA II; type: biochemical; details: p-nitrophenylacetate hydrolysis, pH 7.6
Protocol: as §1, §2
(§4) The employed method is briefly described as follows. An aqueous reaction mixture consisting of 2 Wilbur-Anderson units of CA, 4 mM p-nitrophenylacetate, 5% DMSO, 0.1 M Na2SO4, and 50 mM Tris-HCl buffer at pH 7.6 was prepared to contain a designated amount of inhibitor. The esterase activity of CA (the hydrolysis of p-nitrophenylacetate) was followed by the increases in absorbance at 405 nm using an ELISA reader at room temperature. The initial rate (slope of the initial absorbance data) data from the absorbance data were used to calculate % inhibition of CA at a designated concentration of inhibitor according to equation (7). % Inhibition=[1−(Initial Rate with Inhibitor)/(Initial Rate without Inhibitor)]×100 (7)

[8] = Partitioning between plasma and erythrocytes, 14C-labeled compound; type: in vitro ADME
Protocol: Alternatively, partitioning between plasma and erythrocytes was determined by using a ^14C-labeled compound of Formula I and whole blood withdrawn as heparinized. Scintillation counting was used for analysis in place of HPLC.

Human CA I [9] = biological target: T2, Human CA I; test: Inhibition assay for CA (Method B, esterase activity), CA I; type: biochemical; details: p-nitrophenylacetate hydrolysis, pH 7.6
Protocol: as §1, §2, §4

[10] = Repeat dose toxicity study in rats; type: in vivo, rat
[11] = Pharmacokinetic studies in rats; type: in vivo; details: rat, plasma
Protocol: Pharmacokinetic Studies in Rats: An appropriate amount of a compound suspended in 1% aqueous methylcelluose solution was administered to male SD rats by oral gavage. Blood samples were collected from the retro-orbital sinus at designated time points over 0 to 24 hours post dose. Plasma was separated from each withdrawn blood sample by centrifugation and the plasma sample was stored at 4° C. until HPLC analysis for the quantification of the compound. The plasma samples were analyzed by reverse phase HPLC using an appropriate internal standard and a pre-established calibration curve.

[12] = Repeat dose toxicity study in monkeys
Protocol: Toxicokinetic studies were performed with treatment groups in monkeys. Satellite toxicokinetic groups were used for the toxicokinetic studies of treatment groups in rats. Animals at terminal sacrifice were evaluated for histopathological findings in the GI tract and other organs.

[13] = Plasma protein binding, filtration method, HPLC; type: in vitro ADME; details: male, SD; pooled rat plasma at 1 μg/ml
Protocol: Plasma Protein Binding of Compound: Plasma protein binding was determined for a compound of Formula I by a filtration method. An aliquot of a compound stock solution in DMSO was added to a designated volume of freshly prepared pooled plasma from male SD rats. The plasma solution was then subjected to filtration using a centrifuge filter (Amicon YM-30) at 4000 g for 30 min. The filtrate was analyzed by HPLC to determine the concentration of the compound.

[14] = Plasma protein binding, filtration method, 14C-labeled compound; type: in vitro ADME; details: Sprague-Dawley (SD), rat, broad range of concentrations
Protocol: Alternatively, plasma protein binding was determined by a filtration method employing a ^14C-labeled compound of Formula I. Scintillation counting was used for analysis in place of HPLC.

[15] = system: carrageenan-induced thermal hyperalgesia; details: male SD rats, orally administered; cited from earlier work
[16] = system: adjuvant-induced arthritis; details: male Lewis rats, oral, bid; cited from earlier work
intraocular pressure = details: oral administration, hypertensive rabbits; cited from earlier work
[17] = repeated oral administrations for 4 weeks

T2 sequence (P00915 whole entry): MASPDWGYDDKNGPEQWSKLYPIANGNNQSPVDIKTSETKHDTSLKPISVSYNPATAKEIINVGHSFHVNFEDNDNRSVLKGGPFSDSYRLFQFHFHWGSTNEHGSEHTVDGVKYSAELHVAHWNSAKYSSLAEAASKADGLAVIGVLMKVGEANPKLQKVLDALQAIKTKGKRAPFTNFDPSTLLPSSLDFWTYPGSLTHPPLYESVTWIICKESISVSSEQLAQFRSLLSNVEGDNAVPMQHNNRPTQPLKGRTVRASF

CC1(C)OC(c2ccc(S(N)(=O)=O)cc2)=C(c2cc(F)ccc2F)C1=O [Example 2, 5-{4-(aminosulfonyl)phenyl}-4-(2,5-difluorophenyl)-2,2-dimethyl-3(2H)furanone]
pIC50 (Human CA II [1]): 6.13
pIC50 (Human CA I [2]): 5.49

CS(=O)(=O)c1ccc(C2=C(c3ccccc3)C(=O)OC2)cc1 [rofecoxib]
distribution ratio erythrocytes over plasma [3]: no noticeable preferential distribution
plasma protein binding [4]: 87%
gastric toxicity ([5]; rats, doses where the intestinal toxicity began to come out): not associated with gastric toxicity
primary target sites of the GI adverse events ([5]; rats): jejunum and ileum
thromboembolic cardiovascular events ([6]; 25 mg/day, long term cancer prevention trial (APPROVe)): increased risk of thromboembolic cardiovascular events

CC1(C)OC(c2ccc(S(N)(=O)=O)cc2)=C(c2cccc(F)c2)C1=O [Example 1, 5-{4-(aminosulfonyl)phenyl}-2,2-dimethyl-4-(3-fluorophenyl)-3(2H)furanone]
pIC50 (Human CA II [7]): 7.20
distribution to erythrocytes over plasma [8]: even more preferentially distribute to erythrocytes over plasma
pIC50 (Human CA II [1]): 6.10
pIC50 (Human CA I [9]): 6.54
primary target site of the intestinal adverse findings [10]: caecum
dose limiting adverse effects ([10]; oral, up to 4 weeks): Intestinal adverse effects (primarily in the caecum)
daily systemic exposure without positive histopathological findings in the stomach [10, 17]: ~30,000 hr×ng/ml
histopathological findings in the stomach ([10]; repeated oral administrations for 4 weeks, daily systemic exposure of ca 30,000 hr×ng/ml): no positive histopathological findings in the stomach
Cmax ([11]; male, SD, oral, 0.05 mg/kg, 82 ng/ml divided by 20, read-out: Cmax calculated for 0.1 mg/kg/day, bid (0.05 mg/kg)): 4.1 ng/mL
Cmax ([11]; oral 1 mg/kg, male SD rats, read-out: plasma Cmax): 82 ng/mL
histopathological findings in the stomach ([12]; 4 weeks, one out of 18 subjects): one case of focal mucosal degeneration in the stomach
daily systemic exposure of the subject with the histopathological finding in the stomach ([12]; final day of the treatment): > 20,000 hr×ng/ml
histopathological findings in the intestines [12, 17]: not associated with positive histopathological findings in the intestines
fraction unbound at 1 μg/ml [13]: < 0.01
fraction unbound [14]: ~0.1
pIC50 (Human CA I [2]): 5.52
ED50 in carrageenan-induced thermal hyperalgesia [15]: 0.25 mg/kg
ED50 by adjuvant-induced arthritis [16]: 0.1 mg/kg/day

CC1(C)OC(c2ccc(S(N)(=O)=O)c(F)c2)=C(c2ccc(F)c(F)c2)C1=O [Example 6, 5-{4-(aminosulfonyl)-3-fluorophenyl}-4-(3,4-difluorophenyl)-2,2-dimethyl-3(2H)furanone]
pIC50 (Human CA II [1]): 6.04
pIC50 (Human CA I [2]): 5.30

CC1(C)OC(c2ccc(S(N)(=O)=O)c(F)c2)=C(c2cccc(F)c2)C1=O [Example 4, 5-{4-(aminosulfonyl)-3-fluorophenyl}-2,2-dimethyl-4-(3-fluorophenyl)-3(2H)furanone]
pIC50 (Human CA II [7]): 7.57
pIC50 (Human CA II [1]): 6.35
pIC50 (Human CA I [9]): 6.68
pIC50 (Human CA I [2]): 5.77

CC1(C)OC(c2ccc(S(N)(=O)=O)c(F)c2)=C(c2cc(F)cc(F)c2)C1=O [Example 7, 5-{4-(aminosulfonyl)-3-fluorophenyl}-4-(3,5-difluorophenyl)-2,2-dimethyl-3(2H)furanone]
pIC50 (Human CA II [1]): 6.20
pIC50 (Human CA I [2]): 5.47

CC1(C)OC(c2ccc(S(N)(=O)=O)cc2F)=C(c2cc(F)cc(F)c2)C1=O [Example 9, 5-{4-(aminosulfonyl)-2-fluorophenyl}-4-(3,5-difluorophenyl)-2,2-dimethyl-3(2H)furanone]
pIC50 (Human CA II [1]): 6.20
pIC50 (Human CA I [2]): 5.33

CC1(C)OC(c2ccc(S(N)(=O)=O)c(F)c2)=C(c2cc(F)ccc2F)C1=O [Example 5, 5-{4-(aminosulfonyl)-3-fluorophenyl}-4-(2,5-difluorophenyl)-2,2-dimethyl-3(2H)furanone]
pIC50 (Human CA II [7]): 7.85
pIC50 (Human CA II [1]): 6.32
pIC50 (Human CA I [9]): 6.62
pIC50 (Human CA I [2]): 5.89

Cc1onc(-c2ccccc2)c1-c1ccc(S(N)(=O)=O)cc1 [valdecoxib]
plasma protein binding [4]: 98%
gastric toxicity ([5]; rat, in vivo): not associated with gastric toxicity
thromboembolic events ([6]; acute use, coronary artery bypass graft patients): increase in the thromboembolic events
effect on intraocular pressure (intraocular pressure): reduced intraocular pressure

Cc1cc(C2=C(c3cccc(F)c3)C(=O)C(C)(C)O2)ccc1S(N)(=O)=O [Example 10, 5-{4-(aminosulfonyl)-3-methylphenyl}-2,2-dimethyl-4-(3-fluorophenyl)-3(2H)furanone]
pIC50 (Human CA II [1]): 5.27
pIC50 (Human CA I [2]): 5.04

CC1(C)OC(c2ccc(S(N)(=O)=O)cc2F)=C(c2ccc(F)cc2)C1=O [Example 8, 5-{4-(aminosulfonyl)-2-fluorophenyl}-2,2-dimethyl-4-(4-fluorophenyl)-3(2H)furanone]
pIC50 (Human CA II [1]): 6.38
pIC50 (Human CA I [2]): 5.72

Cc1ccc(-c2cc(C(F)(F)F)nn2-c2ccc(S(N)(=O)=O)cc2)cc1 [celecoxib]
gastric toxicity ([5]; rat, in vivo): not associated with gastric toxicity
primary target sites of the GI adverse events ([5]; rats): jejunum and ileum
thromboembolic events ([6]; 400 mg/day and 800 mg/day, long term cancer prevention trial (APC)): increases in the thromboembolic events

COc1ccc2c(c1)c(CC(=O)O)c(C)n2C(=O)c1ccc(Cl)cc1 [indomethacin, reference compound]
ED50 in carrageenan-induced thermal hyperalgesia [15]: ~1.0 mg/kg
ED50 by adjuvant-induced arthritis [16]: 0.3 mg/kg/day

O=C(O)Cc1ccccc1Nc1c(Cl)cccc1Cl [diclofenac]
effect on intraocular pressure (intraocular pressure): failed to reduce the intraocular pressure

Cc1cnc(NC(=O)C2=C(O)c3ccccc3S(=O)(=O)N2C)s1 [Meloxicam]
primary target sites of the GI adverse events ([5]; rats): duodenum
